{"source": "patent US8921362B2", "about": "“6,7-dialkoxy quinazoline derivatives and methods of treating drug resistant and other tumors” (Natco Pharma Limited, priority 2008, dated 2014)", "assay_in_all_cases": "KinomeScan", "type_in_all_cases": "binding", "conditions_in_all_cases": "read-out: % Ctrl @ 10000 nM", "key": {"SYK": {"molecular_target": "T1, SYK (Homo sapiens, UniProt P43405)", "T1 construct": "host or cells: T7 phage grown in E. coli (BL21-derived)", "summary_of_the_method": "(§1)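 Competition binding of kinase-tagged T7 phage (BL21-derived E. coli lysates) to immobilized ligand on biotin-blocked beads; test compound diluted from 40× DMSO stocks, 2.5% DMSO in no-compound controls. Bound phage eluted and titer quantified by qPCR.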"}, "PRKD2": {"molecular_target": "T2, PRKD2 (Homo sapiens, UniProt Q9BZL6)", "T2 construct": "host or cells: T7 phage in E. coli host derived from BL21", "summary_of_the_method": "as §1"}, "EPHB4": {"molecular_target": "T3, EPHB4 (Homo sapiens, UniProt P54760)", "T3 construct": "purchased Ambit Biosciences Corp; host or cells: T7 phage in E. coli host derived from BL21", "summary_of_the_method": "as §1"}, "BMX": {"molecular_target": "T4, BMX (Homo sapiens, UniProt P51813)", "T4 construct": "host or cells: E. coli host derived from BL21", "summary_of_the_method": "as §1"}, "PIP5K1A": {"molecular_target": "T5, PIP5K1A (Homo sapiens, UniProt Q99755)", "T5 construct": "host or cells: T7 phage in E. coli host derived from BL21", "summary_of_the_method": "as §1"}, "LKB1": {"molecular_target": "T6, LKB1 (Homo sapiens, UniProt Q15831)", "T6 construct": "host or cells: E. coli host derived from the BL21 strain, infected with T7 phage", "summary_of_the_method": "as §1"}, "AAK1": {"molecular_target": "T7, AAK1 (Homo sapiens, UniProt Q2M2I8)", "T7 construct": "host or cells: E. coli (BL21-derived), T7 phage lysate", "summary_of_the_method": "as §1"}, "[1]": {"molecular_target": "T8, EGFR(L747-S752del, P753S) (Homo sapiens, UniProt P00533, DEL747-752/P753S)", "T8 construct": "purchased Ambit Biosciences Corp (KinomeScan); host or cells: T7 phage in E. coli host derived from BL21", "T8 sequence (P00533 with tags, fused parts or gaps DEL747-752/P753S)": "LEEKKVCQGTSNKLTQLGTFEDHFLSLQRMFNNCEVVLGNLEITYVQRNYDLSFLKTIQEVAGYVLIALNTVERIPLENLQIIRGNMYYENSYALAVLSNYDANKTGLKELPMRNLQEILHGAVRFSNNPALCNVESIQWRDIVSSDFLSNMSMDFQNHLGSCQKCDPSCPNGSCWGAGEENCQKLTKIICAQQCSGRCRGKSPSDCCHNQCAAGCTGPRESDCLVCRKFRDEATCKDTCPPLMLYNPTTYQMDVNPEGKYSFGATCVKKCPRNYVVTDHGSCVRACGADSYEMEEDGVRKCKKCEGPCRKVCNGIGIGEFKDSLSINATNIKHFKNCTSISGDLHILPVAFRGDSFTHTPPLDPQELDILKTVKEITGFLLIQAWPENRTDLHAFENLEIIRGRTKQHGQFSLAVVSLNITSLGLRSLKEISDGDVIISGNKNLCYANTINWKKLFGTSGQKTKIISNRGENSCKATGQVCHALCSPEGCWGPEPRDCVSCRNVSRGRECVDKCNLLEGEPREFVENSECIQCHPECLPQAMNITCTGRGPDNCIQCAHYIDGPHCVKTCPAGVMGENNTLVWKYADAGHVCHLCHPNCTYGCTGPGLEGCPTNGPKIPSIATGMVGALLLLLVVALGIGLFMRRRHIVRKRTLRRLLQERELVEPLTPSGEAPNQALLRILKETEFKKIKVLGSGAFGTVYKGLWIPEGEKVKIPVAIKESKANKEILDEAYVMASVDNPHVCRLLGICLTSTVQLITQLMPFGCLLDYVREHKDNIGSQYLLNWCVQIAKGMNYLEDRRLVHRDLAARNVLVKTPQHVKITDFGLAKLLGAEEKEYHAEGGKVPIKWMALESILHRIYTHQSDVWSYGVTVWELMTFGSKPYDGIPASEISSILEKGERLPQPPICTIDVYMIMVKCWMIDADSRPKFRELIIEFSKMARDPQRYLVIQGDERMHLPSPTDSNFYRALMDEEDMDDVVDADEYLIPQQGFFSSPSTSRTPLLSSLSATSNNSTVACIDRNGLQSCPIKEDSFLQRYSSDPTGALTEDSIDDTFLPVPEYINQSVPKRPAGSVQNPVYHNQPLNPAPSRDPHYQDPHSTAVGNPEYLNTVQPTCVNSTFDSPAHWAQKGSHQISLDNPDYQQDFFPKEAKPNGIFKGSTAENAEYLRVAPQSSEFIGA", "summary_of_the_method": "as §1"}, "ZAP70": {"molecular_target": "T9, ZAP70 (Homo sapiens, UniProt P43403)", "T9 construct": "host or cells: T7 phage grown in an E. coli host derived from BL21", "summary_of_the_method": "as §1"}, "KIT(D816V)": {"molecular_target": "T10, KIT(D816V) (Homo sapiens, UniProt P10721, D816V)", "T10 construct": "host or cells: T7 phage grown in E. coli host derived from BL21", "summary_of_the_method": "as §1"}, "LIMK2": {"molecular_target": "T11, LIMK2 (Homo sapiens, UniProt P53671)", "T11 construct": "host or cells: T7 phage grown in E. coli host derived from BL21", "summary_of_the_method": "as §1"}, "CLK3": {"molecular_target": "T12, CLK3 (Homo sapiens, UniProt P49761)", "T12 construct": "host or cells: T7 phage in E. coli host derived from BL21", "summary_of_the_method": "as §1"}, "CAMK1": {"molecular_target": "T13, CAMK1 (Homo sapiens, UniProt Q14012)", "T13 construct": "host or cells: E. coli host derived from BL21", "summary_of_the_method": "as §1"}, "TLK2": {"molecular_target": "T14, TLK2 (Homo sapiens, UniProt Q86UE8)", "T14 construct": "host or cells: E. coli host derived from BL21, T7 phage", "summary_of_the_method": "as §1"}, "FLT4": {"molecular_target": "T15, FLT4 (Homo sapiens, UniProt P35916)", "T15 construct": "host or cells: T7 phage in E. coli host derived from BL21", "T15 sequence (P35916 25-1363)": "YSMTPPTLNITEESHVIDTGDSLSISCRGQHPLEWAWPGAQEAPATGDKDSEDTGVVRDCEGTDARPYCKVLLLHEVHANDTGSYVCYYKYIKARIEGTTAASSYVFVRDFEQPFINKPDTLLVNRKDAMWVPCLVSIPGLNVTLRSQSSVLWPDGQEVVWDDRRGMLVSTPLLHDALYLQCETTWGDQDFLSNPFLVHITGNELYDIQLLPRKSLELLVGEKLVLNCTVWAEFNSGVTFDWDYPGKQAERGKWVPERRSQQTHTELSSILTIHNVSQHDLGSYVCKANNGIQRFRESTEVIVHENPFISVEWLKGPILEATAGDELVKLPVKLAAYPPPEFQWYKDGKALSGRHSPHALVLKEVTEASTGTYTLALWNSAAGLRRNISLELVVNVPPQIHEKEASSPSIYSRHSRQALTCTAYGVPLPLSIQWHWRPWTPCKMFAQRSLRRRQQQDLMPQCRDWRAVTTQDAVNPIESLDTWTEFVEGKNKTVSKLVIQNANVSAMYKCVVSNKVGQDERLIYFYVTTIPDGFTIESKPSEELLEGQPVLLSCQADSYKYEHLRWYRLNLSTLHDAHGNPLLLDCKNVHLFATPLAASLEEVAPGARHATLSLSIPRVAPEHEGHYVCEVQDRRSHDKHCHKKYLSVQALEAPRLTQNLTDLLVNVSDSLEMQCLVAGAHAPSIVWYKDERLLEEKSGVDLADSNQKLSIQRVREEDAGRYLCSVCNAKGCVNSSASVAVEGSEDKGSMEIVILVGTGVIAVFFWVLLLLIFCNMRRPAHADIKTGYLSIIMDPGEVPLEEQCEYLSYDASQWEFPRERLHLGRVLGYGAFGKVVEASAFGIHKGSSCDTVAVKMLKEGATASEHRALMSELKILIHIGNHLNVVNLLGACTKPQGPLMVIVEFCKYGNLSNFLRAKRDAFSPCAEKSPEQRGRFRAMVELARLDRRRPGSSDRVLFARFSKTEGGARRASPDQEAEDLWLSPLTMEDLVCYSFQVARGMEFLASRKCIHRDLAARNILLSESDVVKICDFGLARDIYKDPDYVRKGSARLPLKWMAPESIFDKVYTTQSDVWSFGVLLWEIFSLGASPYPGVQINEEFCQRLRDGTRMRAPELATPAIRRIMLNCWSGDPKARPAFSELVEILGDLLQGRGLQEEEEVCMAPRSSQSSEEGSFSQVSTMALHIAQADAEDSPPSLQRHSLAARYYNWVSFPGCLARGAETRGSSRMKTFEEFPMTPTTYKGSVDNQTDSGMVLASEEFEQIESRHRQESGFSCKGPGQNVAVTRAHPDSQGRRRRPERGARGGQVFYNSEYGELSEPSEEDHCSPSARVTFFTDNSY", "summary_of_the_method": "as §1"}, "MAP4K4": {"molecular_target": "T16, MAP4K4 (Homo sapiens, UniProt O95819)", "T16 construct": "host or cells: E. coli host derived from the BL21 strain, infected with T7 phage", "summary_of_the_method": "as §1"}, "[2]": {"molecular_target": "T17, JAK2(JH1domain- catalytic) (Homo sapiens, UniProt O60674)", "T17 construct": "JAK2(JH1domain- catalytic); host or cells: T7 phage grown in E. coli host derived from BL21", "T17 sequence (O60674 849-1124 limits assumed)": "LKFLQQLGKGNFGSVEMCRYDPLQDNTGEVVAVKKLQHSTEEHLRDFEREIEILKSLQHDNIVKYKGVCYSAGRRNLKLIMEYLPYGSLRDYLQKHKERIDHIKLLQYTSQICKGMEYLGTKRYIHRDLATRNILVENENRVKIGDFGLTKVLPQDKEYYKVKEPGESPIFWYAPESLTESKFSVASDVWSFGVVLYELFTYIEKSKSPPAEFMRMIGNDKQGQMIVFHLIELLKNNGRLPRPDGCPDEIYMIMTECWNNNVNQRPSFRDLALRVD", "summary_of_the_method": "as §1"}, "SgK085": {"molecular_target": "T18, SgK085 (Homo sapiens, UniProt Q86YV6)", "T18 construct": "host or cells: T7 phage grown in E. coli (BL21-derived)", "summary_of_the_method": "as §1"}, "PRKCD": {"molecular_target": "T19, PRKCD (Homo sapiens, UniProt Q05655)", "T19 construct": "host or cells: T7 phage in E. coli host derived from BL21", "summary_of_the_method": "as §1"}, "CDK3": {"molecular_target": "T20, CDK3 (Homo sapiens, UniProt Q00526)", "T20 construct": "host or cells: T7 phage in E. coli host derived from BL21", "summary_of_the_method": "as §1"}, "[3]": {"molecular_target": "T21, RPS6KA5(Kin.Dom.-1-N-terminal) (Homo sapiens, UniProt O75582)", "T21 construct": "RPS6KA5(Kin.Dom.-1-N-terminal); host or cells: E. coli host derived from BL21, T7 phage display", "T21 sequence (O75582 49-318 limits assumed)": "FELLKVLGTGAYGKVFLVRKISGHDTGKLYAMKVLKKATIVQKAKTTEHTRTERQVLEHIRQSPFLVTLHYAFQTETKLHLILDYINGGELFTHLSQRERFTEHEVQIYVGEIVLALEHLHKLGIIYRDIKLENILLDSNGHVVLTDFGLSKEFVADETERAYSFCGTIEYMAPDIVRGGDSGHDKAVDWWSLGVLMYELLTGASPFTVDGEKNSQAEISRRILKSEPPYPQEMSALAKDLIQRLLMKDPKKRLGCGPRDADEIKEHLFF", "summary_of_the_method": "as §1"}, "CSNK2A2": {"molecular_target": "T22, CSNK2A2 (Homo sapiens, UniProt P19784)", "T22 construct": "purchased Ambit Biosciences Corp (KinomeScan); host or cells: T7 phage in E. coli host derived from BL21", "summary_of_the_method": "as §1"}, "ITK": {"molecular_target": "T23, ITK (Homo sapiens, UniProt Q08881)", "T23 construct": "host or cells: T7 phage grown in E. coli host derived from BL21", "summary_of_the_method": "as §1"}, "PKAC-beta": {"molecular_target": "T24, PKAC-beta (Homo sapiens, UniProt P22694)", "T24 construct": "host or cells: T7 phage in E. coli host derived from BL21", "summary_of_the_method": "as §1"}, "FGR": {"molecular_target": "T25, FGR (Homo sapiens, UniProt P09769)", "T25 construct": "host or cells: T7 phage in E. coli host derived from BL21", "summary_of_the_method": "as §1"}, "[4]": {"molecular_target": "T26, TYK2(JH1domain-catalytic) (Homo sapiens, UniProt P29597)", "T26 construct": "TYK2(JH1domain-catalytic); host or cells: E. coli host derived from BL21, T7 phage", "T26 sequence (P29597 897-1176 limits assumed)": "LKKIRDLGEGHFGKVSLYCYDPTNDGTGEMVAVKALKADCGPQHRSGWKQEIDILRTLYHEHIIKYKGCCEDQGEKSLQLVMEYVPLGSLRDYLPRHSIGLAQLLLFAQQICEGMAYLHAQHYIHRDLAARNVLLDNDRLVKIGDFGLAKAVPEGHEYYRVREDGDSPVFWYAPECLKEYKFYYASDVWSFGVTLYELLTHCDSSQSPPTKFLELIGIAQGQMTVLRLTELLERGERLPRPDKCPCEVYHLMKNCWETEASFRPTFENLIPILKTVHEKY", "summary_of_the_method": "as §1"}, "EGFR(S752-1759del)": {"molecular_target": "T27, EGFR(S752-1759del) (Homo sapiens, UniProt P00533, DEL752-759)", "T27 construct": "purchased Ambit Biosciences Corp; host or cells: T7 phage in E. coli host derived from BL21", "T27 sequence (P00533 with tags, fused parts or gaps DEL752-759 limits assumed)": "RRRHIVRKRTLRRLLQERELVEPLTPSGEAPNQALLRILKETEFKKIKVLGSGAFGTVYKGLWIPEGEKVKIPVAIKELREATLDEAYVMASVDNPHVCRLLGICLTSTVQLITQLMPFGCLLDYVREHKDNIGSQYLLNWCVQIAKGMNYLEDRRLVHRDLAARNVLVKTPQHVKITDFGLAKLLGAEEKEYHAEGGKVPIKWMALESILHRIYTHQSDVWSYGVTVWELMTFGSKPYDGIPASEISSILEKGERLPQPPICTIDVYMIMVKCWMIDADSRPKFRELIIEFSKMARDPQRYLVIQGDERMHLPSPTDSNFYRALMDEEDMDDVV", "summary_of_the_method": "as §1"}, "FLT1": {"molecular_target": "T28, FLT1 (Homo sapiens, UniProt P17948)", "T28 construct": "host or cells: T7 phage in E. coli host derived from BL21", "summary_of_the_method": "as §1"}, "IKK-epsilon": {"molecular_target": "T29, IKK-epsilon (Homo sapiens, UniProt Q14164)", "T29 construct": "host or cells: T7 phage grown in E. coli host derived from BL21", "summary_of_the_method": "as §1"}, "RIPK2": {"molecular_target": "T30, RIPK2 (Homo sapiens, UniProt O43353)", "T30 construct": "host or cells: E. coli host derived from BL21, T7 phage display", "summary_of_the_method": "as §1"}, "PIK3CA(E545K)": {"molecular_target": "T31, PIK3CA(E545K) (Homo sapiens, UniProt P42336, E545K)", "T31 construct": "host or cells: E. coli host derived from BL21, infected with T7 phage", "T31 sequence (P42336 whole entry E545K)": "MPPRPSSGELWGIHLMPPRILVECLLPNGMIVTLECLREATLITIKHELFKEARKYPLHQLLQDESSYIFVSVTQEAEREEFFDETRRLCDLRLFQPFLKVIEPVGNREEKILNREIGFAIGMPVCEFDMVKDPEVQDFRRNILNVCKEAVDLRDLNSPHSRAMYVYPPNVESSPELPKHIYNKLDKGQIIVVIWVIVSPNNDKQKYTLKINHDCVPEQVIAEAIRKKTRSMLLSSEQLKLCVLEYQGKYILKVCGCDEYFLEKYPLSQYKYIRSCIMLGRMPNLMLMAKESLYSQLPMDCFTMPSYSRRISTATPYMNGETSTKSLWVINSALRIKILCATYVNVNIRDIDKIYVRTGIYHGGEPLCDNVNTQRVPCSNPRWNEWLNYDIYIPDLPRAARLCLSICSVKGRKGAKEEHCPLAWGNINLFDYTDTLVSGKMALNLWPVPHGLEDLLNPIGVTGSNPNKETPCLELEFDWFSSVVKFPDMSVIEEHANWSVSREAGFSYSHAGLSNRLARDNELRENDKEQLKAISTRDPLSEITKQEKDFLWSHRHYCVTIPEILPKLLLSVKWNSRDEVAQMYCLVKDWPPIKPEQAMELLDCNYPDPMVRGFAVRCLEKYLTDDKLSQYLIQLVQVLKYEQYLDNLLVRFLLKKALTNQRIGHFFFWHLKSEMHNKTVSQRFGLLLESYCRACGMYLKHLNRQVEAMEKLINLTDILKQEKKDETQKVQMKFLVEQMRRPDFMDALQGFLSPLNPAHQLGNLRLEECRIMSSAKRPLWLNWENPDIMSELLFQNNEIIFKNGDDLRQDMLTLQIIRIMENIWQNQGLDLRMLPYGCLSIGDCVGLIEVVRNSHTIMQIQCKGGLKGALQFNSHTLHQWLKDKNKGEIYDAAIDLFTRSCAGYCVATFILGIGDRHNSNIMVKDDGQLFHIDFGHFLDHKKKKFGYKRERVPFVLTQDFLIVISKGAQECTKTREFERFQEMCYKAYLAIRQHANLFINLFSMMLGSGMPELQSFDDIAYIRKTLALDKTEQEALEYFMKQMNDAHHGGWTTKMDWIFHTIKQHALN", "summary_of_the_method": "as §1"}}, "data": [{"smiles": "C#Cc1cccc(Nc2ncnc3cc(OC)c(OCCCN4CCOCC4)cc23)c1", "note": "[NRC-2694, N-(3-ethynylphenyl)-7-methoxy-6-[3-(4-morpholinyl)propoxy]-4-quinazolinamine]", "values": [{"measurement": "remaining binding at 10 µM", "setting": "SYK", "value": 56, "unit": "%"}, {"measurement": "remaining binding at 10 µM", "setting": "PRKD2", "value": 0.4, "unit": "%"}, {"measurement": "remaining binding at 10 µM", "setting": "EPHB4", "value": 39, "unit": "%"}, {"measurement": "remaining binding at 10 µM", "setting": "BMX", "value": 73, "unit": "%"}, {"measurement": "remaining binding at 10 µM", "setting": "PIP5K1A", "value": 61, "unit": "%"}, {"measurement": "remaining binding at 10 µM", "setting": "LKB1", "value": 69, "unit": "%"}, {"measurement": "remaining binding at 10 µM", "setting": "AAK1", "value": 38, "unit": "%"}, {"measurement": "remaining binding at 10 µM", "setting": "[1]", "value": 0.1, "unit": "%"}, {"measurement": "remaining binding at 10 µM", "setting": "ZAP70", "value": 100, "unit": "%"}, {"measurement": "remaining binding at 10 µM", "setting": "KIT(D816V)", "value": 17, "unit": "%"}, {"measurement": "remaining binding at 10 µM", "setting": "LIMK2", "value": 100, "unit": "%"}, {"measurement": "remaining binding at 10 µM", "setting": "CLK3", "value": 45, "unit": "%"}, {"measurement": "remaining binding at 10 µM", "setting": "CAMK1", "value": 65, "unit": "%"}, {"measurement": "remaining binding at 10 µM", "setting": "TLK2", "value": 82, "unit": "%"}, {"measurement": "remaining binding at 10 µM", "setting": "FLT4", "value": 66, "unit": "%"}, {"measurement": "remaining binding at 10 µM", "setting": "MAP4K4", "value": 20, "unit": "%"}, {"measurement": "remaining binding at 10 µM", "setting": "[2]", "value": 38, "unit": "%"}, {"measurement": "remaining binding at 10 µM", "setting": "SgK085", "value": 84, "unit": "%"}, {"measurement": "remaining binding at 10 µM", "setting": "PRKCD", "value": 84, "unit": "%"}, {"measurement": "remaining binding at 10 µM", "setting": "CDK3", "value": 91, "unit": "%"}, {"measurement": "remaining binding at 10 µM", "setting": "[3]", "value": 85, "unit": "%"}, {"measurement": "remaining binding at 10 µM", "setting": "CSNK2A2", "value": 52, "unit": "%"}, {"measurement": "remaining binding at 10 µM", "setting": "ITK", "value": 82, "unit": "%"}, {"measurement": "remaining binding at 10 µM", "setting": "PKAC-beta", "value": 88, "unit": "%"}, {"measurement": "remaining binding at 10 µM", "setting": "FGR", "value": 19, "unit": "%"}, {"measurement": "remaining binding at 10 µM", "setting": "[4]", "value": 97, "unit": "%"}, {"measurement": "remaining binding at 10 µM", "setting": "EGFR(S752-1759del)", "value": 0, "unit": "%"}, {"measurement": "remaining binding at 10 µM", "setting": "FLT1", "value": 64, "unit": "%"}, {"measurement": "remaining binding at 10 µM", "setting": "IKK-epsilon", "value": 75, "unit": "%"}, {"measurement": "remaining binding at 10 µM", "setting": "RIPK2", "value": 2.4, "unit": "%"}, {"measurement": "remaining binding at 10 µM", "setting": "PIK3CA(E545K)", "value": 100, "unit": "%"}]}]}
